{"source": "patent US20200368310A1", "about": "“TREATMENT WITH NMDA RECEPTOR MODULATORS” (Naurex, Inc, priority 2017, published 2020)", "system": "Male rats", "test": "Sleep-wake cycle analysis by telemetric EEG recording in rats", "type": "in vivo, rat", "conditions": "for percentage of active waking: FIG. 4B", "description": "Male rats were anesthetized and surgically implanted with 2 surface electrodes in the frontoparietal cortex and 2 depth electrodes in the CA1 region of the hippocampus (AP +5.0 mm, L ±2.5 mm, V +7.0 mm). After ≥10 days recovery, telemetric transmitters were connected to electrodes for electroencephalographic (EEG) recordings. On the day of experiment, rats were injected at the beginning of the light phase with rapastinel (3, 10, or 30 mg/kg, IV), ketamine (30 mg/kg, IP), or the positive control zolpidem (12 mg/kg, PO) using a treatment schedule based on a cross-over design (n=9-10/dose/group) in which rats received zolpidem or rapastinel at session 1 and then rapastinel and/or ketamine at sessions 2-4. Physiological saline was used as the vehicle control\nSleep-wake cycles were measured continuously following rapastinel treatment for the next 23 hours and were analyzed based on a spectral power analysis. Latencies to first occurrence of SWS and REM sleep, as well as percent time spent in SWS, REM sleep, and wakefulness, were calculated for the total recording sessions (23 hours), the half cycles (0-12 and 12-23 hours), and 5 time segments (0-4, 4-8, 8-12, 12-18, and 18-23 hours). Depth of SWS (defined as the ratio between alpha and delta spectral power) was also calculated. Differences between vehicle and test drugs were calculated for all variables, for each animal, and for the means of the animals per treatment group, and analyzed using a paired t-test", "note": "Residues, ends and D or L forms follow the SMILES beside them.", "data": [{"smiles": "CNC1(c2ccccc2Cl)CCCCC1=O", "note": "(stereo not drawn) [Ketamine, ketamine]", "values": [{"measurement": "alpha/delta ratio (depth of SWS)", "setting": "ketamine 30 mg/kg IP, 0-4 hours post-dose, P<0.001", "value": "concomitant decrease"}, {"measurement": "duration of SWS", "setting": "ketamine 30 mg/kg IP, 0-4 hours post-dose, P<0.001, FIG. 2A", "value": "decreased"}, {"measurement": "duration of REM sleep", "setting": "ketamine 30 mg/kg IP, 0-4 hours post-dose, P<0.001, FIG. 3", "value": "decreased"}, {"measurement": "waking (duration)", "setting": "ketamine 30 mg/kg IP, 12-23 hours post-dose, P<0.01, FIG. 4A", "value": "small but significant decrease"}, {"measurement": "REM sleep (duration)", "setting": "ketamine 30 mg/kg IP, 12-23 hours post-dose, P<0.05, FIG. 3", "value": "compensatory increase"}, {"measurement": "percentage of active waking", "setting": "ketamine 30 mg/kg IP, 12-23 hours post-dose, P<0.05", "value": "significantly decreased"}, {"measurement": "duration of waking", "setting": "ketamine 30 mg/kg IP, first 4 hours post-dose, P<0.001, FIG. 4A", "value": "significantly increased"}]}, {"smiles": "C[C@@H](O)[C@H](N)C(=O)N1CCC[C@H]1C(=O)N1CCC[C@H]1C(=O)N[C@H](C(N)=O)[C@@H](C)O", "note": "[Rapastinel, rapastinel] (H-TPPT-NH2)", "values": [{"measurement": "percentage of active waking", "setting": "rapastinel 30 mg/kg IV, 8-12 hours post-dose, P<0.01", "value": "small but significant decrease"}, {"measurement": "percentage of active waking", "setting": "rapastinel 30 mg/kg IV, 18-23 hours post-dose, P<0.05", "value": "small but significant decrease"}, {"measurement": "percentage of active waking", "setting": "rapastinel, all doses and periods except 8-12 and 18-23 hours at 30 mg/kg", "value": "no effect"}]}, {"smiles": "Cc1ccc(-c2nc3ccc(C)cn3c2CC(=O)N(C)C)cc1", "note": "[Zolpidem, zolpidem]", "values": [{"measurement": "percentage of active waking", "setting": "zolpidem 12 mg/kg PO, 0-12 hours post-dose, P<0.05", "value": "significantly decreased"}, {"measurement": "duration of REM sleep", "setting": "zolpidem 12 mg/kg PO, 4-8 hours post-dose, P<0.05, FIG. 3", "value": "significantly decreased"}]}]}
